Experimental findings from ChEMBL document CHEMBL5724914, “Linking interpersonal differences in gut microbiota composition and drug biotransformation activity” (2024) are described below.

Structures are written as SMILES. Where a SMILES comes first, the peptide text is derived from it. [ ]: non-standard residue; d: D form. pGlu = O=C1CC[C@@H](C(=O)O)N1; Thz = O=C(O)[C@@H]1CSCN1

The nature of data set [1]: The drug is tested on Z-014 corresponding to rat gut metagenome with ENA study accession number: PRJEB37062 and ENA sample accession number: ERS12561814 for biotransformation under anaerobic condition. The drug concentrations were measured over 9 timepoints collected between 0 and 24 hours of incubation by liquid-chromatography-coupled mass spectrometry (LC–MS). The conditions noted are these: 2 µM.

For data set [2] the following is noted: human gut metagenome, 24 h, 2 µM.
The conditions of data set [3]: human gut metagenome, 24 h, 2 µM. The source holds these as a separate data set.
The conditions of data set [4]: human gut metagenome, 24 h, 2 µM. This is another data set of the same source.
Data set [5] can be described thus: The drug is tested on Z-006 corresponding to mouse gut metagenome with ENA study accession number: PRJEB37062 and ENA sample accession number: ERS12561806 for biotransformation under anaerobic condition. The drug concentrations were measured over 9 timepoints collected between 0 and 24 hours of incubation by liquid-chromatography-coupled mass spectrometry (LC–MS). The conditions noted are these: 2 µM.

Data set [6] can be described thus: The drug is tested on Z-019 corresponding to rat gut metagenome with ENA study accession number: PRJEB37062 and ENA sample accession number: ERS12561818 for biotransformation under anaerobic condition. The drug concentrations were measured over 9 timepoints collected between 0 and 24 hours of incubation by liquid-chromatography-coupled mass spectrometry (LC–MS). The note with it: 2 µM.

A short description of data set [7]: The drug is tested on Z-026 corresponding to metagenome with ENA study accession number: PRJEB37062 and ENA sample accession number: ERS12561825 for biotransformation under anaerobic condition. The drug concentrations were measured over 9 timepoints collected between 0 and 24 hours of incubation by liquid-chromatography-coupled mass spectrometry (LC–MS). The conditions noted are these: 2 µM.

Data set [8] is described as follows: The drug is tested on Z-017 corresponding to mouse gut metagenome with ENA study accession number: PRJEB37062 and ENA sample accession number: ERS12561816 for biotransformation under anaerobic condition. The drug concentrations were measured over 9 timepoints collected between 0 and 24 hours of incubation by liquid-chromatography-coupled mass spectrometry (LC–MS). The note with it: 2 µM.

Data set [9] can be described thus: The drug is tested on Z-013 corresponding to rabbit gut metagenome with ENA study accession number: PRJEB37062 and ENA sample accession number: ERS12561813 for biotransformation under anaerobic condition. The drug concentrations were measured over 9 timepoints collected between 0 and 24 hours of incubation by liquid-chromatography-coupled mass spectrometry (LC–MS). The conditions noted are these: 2 µM.

The conditions of data set [10]: human gut metagenome, 24 h, 2 µM. This is another data set of the same source.
The conditions of data set [11]: human gut metagenome, 24 h, 2 µM. The source holds these as a separate data set.
The conditions of data set [12]: human gut metagenome, 24 h, 2 µM. This is another data set of the same source.
For data set [13] the following is noted: human gut metagenome, 24 h, 2 µM. This is another data set of the same source.
The conditions of data set [14]: human gut metagenome, 24 h, 2 µM. The source holds these as a separate data set.
A short description of data set [15]: The drug is tested on WLS-027 corresponding to human gut metagenome with ENA study accession number: PRJEB37062 and ENA sample accession number: ERS12561744 for biotransformation under anaerobic condition. The drug concentrations were measured over 9 timepoints collected between 0 and 24 hours of incubation by liquid-chromatography-coupled mass spectrometry (LC–MS). The note with it: 2 µM.

The conditions of data set [16]: human gut metagenome, 24 h, 2 µM. The source holds these as a separate data set.
Data set [17] can be described thus: The drug is tested on WLS-170 corresponding to human gut metagenome with ENA study accession number: PRJEB37062 and ENA sample accession number: ERS12561762 for biotransformation under anaerobic condition. The drug concentrations were measured over 9 timepoints collected between 0 and 24 hours of incubation by liquid-chromatography-coupled mass spectrometry (LC–MS). The conditions noted are these: 2 µM.

The nature of data set [18]: The drug is tested on WLS-077 corresponding to human gut metagenome with ENA study accession number: PRJEB37062 and ENA sample accession number: ERS12561750 for biotransformation under anaerobic condition. The drug concentrations were measured over 9 timepoints collected between 0 and 24 hours of incubation by liquid-chromatography-coupled mass spectrometry (LC–MS). The conditions noted are these: 2 µM.

The conditions of data set [19]: human gut metagenome, 24 h, 2 µM. This is another data set of the same source.
The nature of data set [20]: The drug is tested on WLS-240 corresponding to human gut metagenome with ENA study accession number: PRJEB37062 and ENA sample accession number: ERS12561773 for biotransformation under anaerobic condition. The drug concentrations were measured over 9 timepoints collected between 0 and 24 hours of incubation by liquid-chromatography-coupled mass spectrometry (LC–MS). The conditions noted are these: 2 µM.
Also: call rule not given here.

As for `CCCCCCOC(=O)/N=C(/N)c1ccc(NCc2nc3cc(C(=O)N(CCC(=O)OCC)c4ccccn4)ccc3n2C)cc1.CS(=O)(=O)O` [DABIGATRAN ETEXILATE MESYLATE], the “Bacterial Biotransformation” value in data set [1], in data set [2], in [3], in data set [4], in [5] and in data set [6] was “Compound NOT metabolized” throughout. The “Bacterial Biotransformation” value in data set [7], in data set [8] and in data set [9] was “Compound NOT metabolized” each time.

In the case of `C[C@@H]1C[C@H]2[C@@H]3CCC4=CC(=O)C=C[C@]4(C)[C@@]3(F)[C@@H](O)C[C@]2(C)[C@@]1(O)C(=O)CO` [DEXAMETHASONE], the “Bacterial Biotransformation” value in [1], in data set [2], in data set [10], in [11], in [3] and in data set [4] was “Compound NOT metabolized” each time. The “Bacterial Biotransformation” value in data set [5], in [12], in [13], in data set [14], in data set [6] and in data set [15] was “Compound NOT metabolized” each time. In addition, the “Bacterial Biotransformation” value in data set [7], in data set [8], in [16], in [17], in data set [18] and in data set [19] was “Compound NOT metabolized” each time. In data set [9], the “Bacterial Biotransformation” value was “Compound NOT metabolized”.

Take `O=c1[nH]c2ccccc2n1CCCN1CCC(n2c(=O)[nH]c3cc(Cl)ccc32)CC1` [DOMPERIDONE]: the “Bacterial Biotransformation” value in [1], in data set [10], in [11], in data set [3], in data set [4] and in data set [5] was “Compound NOT metabolized” each time. Besides, the “Bacterial Biotransformation” value in data set [12], in data set [13], in data set [14], in data set [6], in [15] and in [7] was “Compound NOT metabolized” throughout. For the same compound, the “Bacterial Biotransformation” value in data set [8], in [16], in [18], in [19], in data set [9] and in [20] was “Compound NOT metabolized” throughout.

Turning to `C#C[C@]1(O)CC[C@H]2[C@@H]3CCC4=CC(=O)CC[C@@H]4[C@H]3CC[C@@]21CC` [LEVONORGESTREL], the “Bacterial Biotransformation” value in [1] is listed as “Compound metabolized”; in data set [2], “Compound metabolized”; in data set [10], “Compound metabolized”; in data set [11], “Compound NOT metabolized”; in [4], “Compound metabolized”; in data set [5] it was “Compound metabolized”. The “Bacterial Biotransformation” value in data set [12], in [13], in data set [14], in data set [6], in data set [15] and in data set [7] was “Compound metabolized” throughout. The “Bacterial Biotransformation” value in [8], in data set [16], in [17], in [18], in data set [19] and in [9] was “Compound metabolized” throughout.

`CO[C@]12C[C@@H](COC(=O)c3cncc(Br)c3)CN(C)[C@@H]1Cc1cn(C)c3cccc2c13` [NICERGOLINE]: the “Bacterial Biotransformation” value is “Compound metabolized” in data set [1]; “Compound NOT metabolized” in [2]; “Compound NOT metabolized” in data set [10]; “Compound NOT metabolized” in [11]; “Compound NOT metabolized” in [3]; “Compound metabolized” in data set [4]. Moreover, the “Bacterial Biotransformation” value in data set [5] is “Compound metabolized”; in data set [12] it was “Compound NOT metabolized”; in data set [13], “Compound metabolized”; in [14], “Compound NOT metabolized”; in data set [6], “Compound NOT metabolized”; in [15], “Compound metabolized”. Moreover, the “Bacterial Biotransformation” value in data set [7] was “Compound metabolized”; in [8] it was “Compound NOT metabolized”; in data set [16], “Compound NOT metabolized”; in data set [17], “Compound NOT metabolized”; in data set [19], “Compound metabolized”; in data set [9], “Compound metabolized”. Besides, the “Bacterial Biotransformation” value in [20] is given as “Compound NOT metabolized”.

Turning to `O=C1CC[C@@H](C(=O)N2CSC[C@H]2C(=O)O)N1` [PIDOTIMOD] ([pGlu]-[Thz]-OH), the “Bacterial Biotransformation” value in data set [1], in data set [2], in data set [11], in data set [3], in data set [4] and in data set [5] was “Compound NOT metabolized” each time. Moreover, the “Bacterial Biotransformation” value in data set [12], in [6], in data set [15], in data set [8], in [16] and in [17] was “Compound NOT metabolized” throughout. Moreover, the “Bacterial Biotransformation” value in data set [18], in data set [19], in data set [9] and in data set [20] was “Compound NOT metabolized” throughout.

Take `COC(=O)[C@H]1[C@H]2C[C@@H]3c4[nH]c5cc(OC)ccc5c4CCN3C[C@H]2C[C@@H](OC(=O)c2cc(OC)c(OC)c(OC)c2)[C@@H]1OC` [RESERPINE]: the “Bacterial Biotransformation” value in data set [1] is on record as “Compound NOT metabolized”; in data set [2], “Compound NOT metabolized”; in [3], “Compound metabolized”; in data set [4] it was “Compound NOT metabolized”; in [5], “Compound NOT metabolized”; in data set [12], “Compound metabolized”. Also, the “Bacterial Biotransformation” value in data set [13] is on record as “Compound metabolized”; in data set [14], “Compound metabolized”; in [6], “Compound NOT metabolized”; in data set [15] it was “Compound metabolized”; in [7], “Compound NOT metabolized”; in data set [8] it was “Compound NOT metabolized”. Also, the “Bacterial Biotransformation” value in [18], in [9] and in data set [20] was “Compound NOT metabolized” in each case.
